Assay [1] has as its target T1, KRAS-WT and SOS1 proteins (Homo sapiens, UniProt Q07889).
T1 construct: purchased Cisbio 63ADK000CB15PEG
T1 sequence (Q07889 1-1333): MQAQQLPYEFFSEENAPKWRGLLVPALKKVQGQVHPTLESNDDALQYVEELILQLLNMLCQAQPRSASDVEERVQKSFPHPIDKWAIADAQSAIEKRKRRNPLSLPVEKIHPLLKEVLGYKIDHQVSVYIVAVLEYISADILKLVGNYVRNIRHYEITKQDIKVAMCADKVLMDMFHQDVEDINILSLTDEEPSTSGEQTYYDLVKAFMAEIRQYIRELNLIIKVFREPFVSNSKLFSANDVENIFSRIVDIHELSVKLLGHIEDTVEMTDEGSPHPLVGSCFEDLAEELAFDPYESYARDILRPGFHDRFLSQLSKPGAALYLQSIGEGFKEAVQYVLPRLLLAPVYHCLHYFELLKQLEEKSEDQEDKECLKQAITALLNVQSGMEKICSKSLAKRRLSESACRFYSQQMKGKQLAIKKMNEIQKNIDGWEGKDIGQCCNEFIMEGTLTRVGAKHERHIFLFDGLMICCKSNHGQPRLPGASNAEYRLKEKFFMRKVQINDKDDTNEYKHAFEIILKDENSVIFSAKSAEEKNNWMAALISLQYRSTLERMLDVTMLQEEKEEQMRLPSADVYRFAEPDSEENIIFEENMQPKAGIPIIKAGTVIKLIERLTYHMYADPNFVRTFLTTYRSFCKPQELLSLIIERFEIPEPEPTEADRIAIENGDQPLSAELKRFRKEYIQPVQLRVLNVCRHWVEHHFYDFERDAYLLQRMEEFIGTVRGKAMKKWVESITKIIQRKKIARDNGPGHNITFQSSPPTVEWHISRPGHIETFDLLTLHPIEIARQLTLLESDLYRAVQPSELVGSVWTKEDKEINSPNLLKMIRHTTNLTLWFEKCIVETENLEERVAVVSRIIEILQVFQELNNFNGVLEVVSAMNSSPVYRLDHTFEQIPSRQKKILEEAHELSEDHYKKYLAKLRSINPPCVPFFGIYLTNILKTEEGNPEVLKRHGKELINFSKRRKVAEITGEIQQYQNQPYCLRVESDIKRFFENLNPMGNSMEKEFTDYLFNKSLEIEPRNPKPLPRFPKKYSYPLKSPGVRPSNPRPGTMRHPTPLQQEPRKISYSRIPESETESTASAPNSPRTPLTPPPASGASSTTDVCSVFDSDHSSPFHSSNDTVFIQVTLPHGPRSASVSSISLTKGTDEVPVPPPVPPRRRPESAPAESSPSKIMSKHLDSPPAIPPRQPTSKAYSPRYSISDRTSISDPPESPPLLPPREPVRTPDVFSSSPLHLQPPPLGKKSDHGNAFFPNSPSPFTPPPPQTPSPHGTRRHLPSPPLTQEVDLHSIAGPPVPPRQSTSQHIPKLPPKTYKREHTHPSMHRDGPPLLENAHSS
In words: KRAS-WT/SOS1 binding assay (HTRF). As to conditions: Tag1-SOS1 / Tag2-KRAS-WT, 10 μM GTP, read-out: Activity Data in Kras: SOS1 Assay, Wild Type. The protocol: (§1) KRAS-WT (or G12C/G12D/G12V)/SOS1 Binding Assay
(§2) Low IC50 values are indicative of high potency of the SOS1 inhibitor compounds in this assay setting.
(§3) The KRAS-WT (or G12C/G12D/G12V)/SOS1 binding assay is performed using an assay kit (Cisbio, Cat #63ADK000CB15PEG or 63ADK000CB16PEG/63ADK000CB17PEG/63ADK000CB18PEG) according to the procedure recommended by the manufacturer. • 1) Thaw and prepare the working solution of Tag1-SOS1 protein and Tag2-KRAS-WT (or G12C/G12D/G12V) protein with final concentration of 10 μM GTP (Sigma, Cat #V900868). • 2) Thaw and prepare the working solution of anti-Tag1-Tb^3+ anti-Tag2-XL665. • 3) Dispense 2 μL of serially diluted compound, 4 μL of Tag1-SOS1 protein and 4 μL of Tag2-KRAS-WT (or G12C/G12D/G12V) protein with GTP into a ProxiPlate-384 Plus, white 384-shallow well microplate (PerkinElmer, Cat #6008280). • 4) Incubate the plate for 15 minutes at room temperature. • 5) Dispense 10 μL of pre-mixed anti-Tag1-Tb^3+ and anti-Tag2-XL665 into the plate. • 6) Seal the plate and incubate for 2 hours at room temperature. • 7) Remove the plate sealer and read on PHERAstar FS (BMG LABTECH, PHERAstar FS). • 8) Calculate the ratio of the acceptor and donor emission signals for each individual well using the following equation.
(§4) [formula] • 9) IC50 values are fitted and calculated by HTRF signal values and log of compound concentrations to nonlinear regression [Log (inhibitor) vs. Response−Variable Slope (four parameters)] using the GraphPad Prism 8.0.
Background: In TR-FRET formats the signal depends on donor and acceptor labels being close together.

Assay [2] addresses T2, KRAS G12D and SOS1 proteins (Homo sapiens, UniProt Q07889).
T2 construct: purchased Cisbio 63ADK000CB17PEG
T2 sequence (Q07889 1-1333): T1 sequence (Q07889 1-1333)
Put plainly: KRAS-G12D/SOS1 binding assay (HTRF). Particulars: Tag1-SOS1 / Tag2-KRAS G12D, 10 μM GTP. The protocol:
as §1, §2, §3, §4

Where only a bound is given, the exact number is not on record here.

As for `Cc1nc(N[C@H](C)c2cccc3c2CCC3(F)F)c2cc(N3CCOCC3)c3nncn3c2n1` [Example 23, N-[(1R)-1-(1,1-difluoro-2,3-dihydro-1H-inden-4-yl)ethyl]-12-methyl-7-(morpholin-4-yl)-2,4,5,11,13-pentaazatricyclo[7.4.0.0^{2,6}]trideca-1(9),3,5,7,10,12-hexaen-10-amine], the IC50 in assay [1] and in assay [2] was less than 0.1 µM in each case.

In the case of `C[C@@H](Nc1nc2ccnn2c2cc(=O)n(C3(C(F)F)CC3)cc12)c1cccc(C(F)(F)CO)c1` [Example 68, (R)-5-((1-(3-(1,1-difluoro-2-hydroxyethyl)phenyl)ethyl)amino)-7-(1-(difluoromethyl)cyclopropyl)pyrazolo[1,5-a]pyrido[3,4-e]pyrimidin-8(7H)-one], the IC50 in assay [1] and in assay [2] was less than 0.1 µM in each case.

Take `Cc1nc(N[C@H](C)c2cccc(C(F)(F)CO)c2)c2cc(N3CC[C@H](O)C3)c3c(cnn3C)c2n1` [Example 43, (3S)-1-(4-{[(1R)-1-[3-(1,1-difluoro-2-hydroxyethyl)phenyl]ethyl]amino}-2,7-dimethyl-7H-pyrazolo[3,4-h]quinazolin-6-yl)pyrrolidin-3-ol]: the IC50 in assay [1] and in assay [2] was less than 0.1 µM throughout.

Take `CC(=O)N1CCC(n2cc3c(N[C@H](C)c4cccc(C(F)(F)CO)c4)nc4ccnn4c3cc2=O)CC1` [Example 75, 11-(1-acetylpiperidin-4-yl)-8-{[(1R)-1-[3-(1,1-difluoro-2-hydroxyethyl)phenyl]ethyl]amino}-2,3,7,11-tetraazatricyclo[7.4.0.0^{2,6}]trideca-1(13),3,5,7,9-pentaen-12-one]: the IC50 in assay [1] and in assay [2] was less than 0.1 µM each time.

For `Cc1nc(N[C@H](C)c2cccc(C(F)(F)CO)c2)c2cc(-c3ccc(=O)n(C)c3)c3nn(C(F)(F)F)cc3c2n1` [Example 34, 5-(4-{[(1R)-1-[3-(1,1-difluoro-2-hydroxyethyl)phenyl]ethyl]amino}-2-methyl-8-(trifluoromethyl)-8H-pyrazolo[3,4-h]quinazolin-6-yl)-1-methyl-1,2-dihydropyridin-2-one], the IC50 in assay [1] and in assay [2] was 0.1 to 0.5 µM throughout.

As to `Cc1nc(N[C@H](C)c2cccc(C(F)(F)CO)c2)c2cc(-c3ccc(=O)[nH]c3)c3c(cnn3C)c2n1` [Example 29, (R)-5-(4-((1-(3-(1,1-difluoro-2-hydroxyethyl)phenyl)ethyl)amino)-2,7-dimethyl-7H-pyrazolo[3,4-h]quinazolin-6-yl)pyridin-2(1H)-one], the IC50 in assay [1] and in assay [2] was less than 0.1 µM in each case.

Consider `Cc1nc(N[C@H](C)c2cccc(C(F)(F)CO)c2)c2cc([C@H]3CC[C@H](O)CC3)c3nncn3c2n1` [Example 16, Trans-(R)-4-(4-((1-(3-(1,1-difluoro-2-hydroxyethyl)phenyl)ethyl)amino)-2-methyl-[1,2,4]triazolo[4′,3′:1,6]pyrido[2,3-d]pyrimidin-6-yl)cyclohexan-1-ol], for which the IC50 in assay [1] and in assay [2] was less than 0.1 µM each time.

On to `C[C@@H](Nc1nc2ccnn2c2cc(=O)n(C3CCNCC3)cc12)c1cccc(C(F)(F)CO)c1` [Example 77, 8-{[(1R)-1-[3-(1,1-difluoro-2-hydroxyethyl)phenyl]ethyl]amino}-11-(piperidin-4-yl)-2,3,7,11-tetraazatricyclo[7.4.0.0^{2,6}]trideca-1(13),3,5,7,9-pentaen-12-one], for which the IC50 in assay [1] and in assay [2] was less than 0.1 µM each time.

As for `C[C@@H](Nc1nc2ccnn2c2cc(=O)n(C3(C)CC3)cc12)c1cccc(C(F)(F)F)n1` [Example 65, (R)-7-(1-methylcyclopropyl)-5-((1-(6-(trifluoromethyl)pyridin-2-yl)ethyl)amino)pyrazolo[1,5-a]pyrido[3,4-e]pyrimidin-8(7H)-one], the IC50 in assay [1] and in assay [2] was 0.5 to 5 µM throughout.

As for `COCC(=O)N1CCC(c2cc3c(N[C@H](C)c4cccc5c4CCC5(F)F)nc(C)nc3n3cnnc23)CC1` [Example 10, (R)-1-(4-(4-((1-(1,1-difluoro-2,3-dihydro-1H-inden-4-yl)ethyl)amino)-2-methyl-[1,2,4]triazolo[4′,3′:1,6]pyrido[2,3-d]pyrimidin-6-yl)piperidin-1-yl)-2-methoxyethan-1-one], the IC50 in assay [1] and in assay [2] was less than 0.1 µM in each case.

As to `C[C@@H](Nc1nc2ccnn2c2cc(=O)n([C@H]3CCOC3)cc12)c1cccc2c1CCC2(F)F` [Example 71, 5-(((R)-1-(1,1-difluoro-2,3-dihydro-1H-inden-4-yl)ethyl)amino)-7-((S)-tetrahydrofuran-3-yl)pyrazolo[1,5-a]pyrido[3,4-e]pyrimidin-8(7H)-one], the IC50 in assay [1] and in assay [2] was less than 0.1 µM each time.

Regarding `Cc1nc(N[C@H](C)c2cccc3c2CCC3(F)F)c2cc(O[C@H]3CCOC3)c3nncn3c2n1` [Example 19, N-((R)-1-(1,1-difluoro-2,3-dihydro-1H-inden-4-yl)ethyl)-2-methyl-6-(((S)-tetrahydrofuran-3-yl)oxy)-[1,2,4]triazolo[4′,3′:1,6]pyrido[2,3-d]pyrimidin-4-amine], the IC50 in assay [1] and in assay [2] was less than 0.1 µM in each case.

On to `COc1cc2c(cc1O[C@H]1CCOC1)c(N[C@H](C)c1cccc(C(F)(F)F)c1)nc1nccn12` [Example 58, 8-methoxy-7-(((S)-tetrahydrofuran-3-yl)oxy)-N—((R)-1-(3-(trifluoromethyl)phenyl)ethyl)imidazo[1,2-a]quinazolin-5-amine], for which the IC50 in assay [1] and in assay [2] was less than 0.1 µM throughout.

Take `Cc1c([C@@H](C)Nc2nc3ccnn3c3cc(=O)n(C4(C)CC4)cc23)cccc1C(F)(F)F` [Example 63, (R)-5-((1-(2-methyl-3-(trifluoromethyl)phenyl)ethyl)amino)-7-(1-methylcyclopropyl)pyrazolo[1,5-a]pyrido[3,4-e]pyrimidin-8(7H)-one]: the IC50 in assay [1] and in assay [2] was less than 0.1 µM each time.

`Cc1nc(N[C@H](C)c2cccc3c2CCC3(F)F)c2cc(C3CCN(S(C)(=O)=O)CC3)c3nncn3c2n1` [Example 8, (R)-N-(1-(1,1-difluoro-2,3-dihydro-1H-inden-4-yl)ethyl)-2-methyl-6-(1-(methylsulfonyl)piperidin-4-yl)-[1,2,4]triazolo[4′,3′:1,6]pyrido[2,3-d]pyrimidin-4-amine]: the IC50 in assay [1] and in assay [2] was less than 0.1 µM in each case.

As for `Cc1nc(N[C@H](C)c2cc(N)cc(C(F)(F)F)c2)c2cc(O[C@H]3CCOC3)c3c(cnn3C)c2n1` [Example 37, N-((R)-1-(3-amino-5-(trifluoromethyl)phenyl)ethyl)-2,7-dimethyl-6-(((S)-tetrahydrofuran-3-yl)oxy)-7H-pyrazolo[3,4-h]quinazolin-4-amine], the IC50 in assay [1] and in assay [2] was less than 0.1 µM in each case.

For the origin of these results see US20240109891A1, “NOVEL SUBSTITUTED TRICYCLIC AZA-HETEROCYCLES AS SOS1 INHIBITORS” (Viva Star Biosciences (Suzhou) Co., Ltd., priority 2021, published 2024).
